Values of other authors, collected in patent US6521608B1, “Vitamin D and its analogs in the treatment of tumors and other hyperproliferative disorders” (Oregon Health & Science University, priority 1998, dated 2003).
Where “and” joins values, the source holds several entries; their conditions need not be identical. Equal values may be shown once.

Tests used:
[1] = relative to calcitriol = 1; cited from earlier work
[2] = biological target: T1, VDR (MCF-7 human breast cancer cells) (Homo sapiens, UniProt P11473); conditions: MCF-7 cells; cited from earlier work
T1 construct: m=MCF-7 human breast cancer cells, z=rat osteosarcoma ROS 17/2.8 cells; endogenous in cells; host or cells: MCF-7 human breast cancer cells
T1 sequence (P11473 1-427): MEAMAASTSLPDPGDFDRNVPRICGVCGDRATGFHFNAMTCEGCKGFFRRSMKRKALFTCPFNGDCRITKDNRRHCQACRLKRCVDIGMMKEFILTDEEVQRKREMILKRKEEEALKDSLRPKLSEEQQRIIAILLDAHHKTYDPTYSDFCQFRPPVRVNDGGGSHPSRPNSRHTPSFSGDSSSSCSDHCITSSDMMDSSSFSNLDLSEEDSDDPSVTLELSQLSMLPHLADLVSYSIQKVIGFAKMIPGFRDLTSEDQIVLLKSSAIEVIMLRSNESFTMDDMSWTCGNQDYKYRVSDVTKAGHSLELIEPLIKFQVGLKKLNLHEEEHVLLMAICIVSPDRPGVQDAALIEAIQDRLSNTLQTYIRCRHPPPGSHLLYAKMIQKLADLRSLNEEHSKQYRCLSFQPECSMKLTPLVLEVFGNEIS

[3] = biological target: T2, VDR (rat osteosarcoma ROS 17/2.8 cells) (Rattus norvegicus, UniProt P13053); conditions: cited from earlier work
T2 construct: m=MCF-7 human breast cancer cells, z=rat osteosarcoma ROS 17/2.8 cells; endogenous in cells; host or cells: ROS 17/2.8 rat osteosarcoma cells
T2 sequence (P13053 1-423): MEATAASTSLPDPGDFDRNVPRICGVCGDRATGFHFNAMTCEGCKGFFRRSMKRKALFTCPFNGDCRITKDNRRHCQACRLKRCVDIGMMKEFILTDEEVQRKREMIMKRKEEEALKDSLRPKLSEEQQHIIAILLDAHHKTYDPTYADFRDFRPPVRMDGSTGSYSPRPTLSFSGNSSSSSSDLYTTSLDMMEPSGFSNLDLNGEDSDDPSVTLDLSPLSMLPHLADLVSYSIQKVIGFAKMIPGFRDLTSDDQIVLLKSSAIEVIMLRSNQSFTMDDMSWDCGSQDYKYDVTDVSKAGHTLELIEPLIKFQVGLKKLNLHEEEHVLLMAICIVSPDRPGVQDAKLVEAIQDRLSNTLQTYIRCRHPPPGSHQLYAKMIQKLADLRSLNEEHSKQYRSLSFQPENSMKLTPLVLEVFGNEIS

VDR (chick intestine) = biological target: T3, VDR (chick intestine) (Gallus gallus, UniProt O42392); conditions: cited from earlier work
T3 construct: SPC indicates the species of origin of the nVDR where c=chick intestine, r=rat intestine; from tissue; host or cells: chick intestine
T3 sequence (O42392 1-451): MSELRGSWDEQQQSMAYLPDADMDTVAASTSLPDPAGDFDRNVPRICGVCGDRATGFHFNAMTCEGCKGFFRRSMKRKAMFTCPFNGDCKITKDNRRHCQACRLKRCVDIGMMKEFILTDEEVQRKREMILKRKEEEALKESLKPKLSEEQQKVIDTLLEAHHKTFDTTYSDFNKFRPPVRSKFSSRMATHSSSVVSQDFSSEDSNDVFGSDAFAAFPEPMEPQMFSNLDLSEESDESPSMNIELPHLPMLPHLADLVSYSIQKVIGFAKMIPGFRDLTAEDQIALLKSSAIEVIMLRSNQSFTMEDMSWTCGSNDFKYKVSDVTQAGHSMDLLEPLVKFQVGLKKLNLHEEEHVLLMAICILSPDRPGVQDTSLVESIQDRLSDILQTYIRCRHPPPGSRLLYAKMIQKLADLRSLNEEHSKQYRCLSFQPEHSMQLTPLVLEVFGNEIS

VDR (rat intestine) = biological target: T4, VDR (rat intestine) (Rattus norvegicus, UniProt P13053); conditions: cited from earlier work
T4 construct: SPC indicates the species of origin of the nVDR where c=chick intestine, r=rat intestine; from tissue; host or cells: rat intestine
T4 sequence (P13053 1-423): T2 sequence (P13053 1-423)

VDR (U-937 cells) = biological target: T5, VDR (U-937 cells) (Homo sapiens, UniProt P11473); conditions: cited from earlier work
T5 construct: obtained in human transformed cell lines where h=HL-60 cells, u=U-937; endogenous in cells; host or cells: U-937
T5 sequence (P11473 1-427): T1 sequence (P11473 1-427)

[4] = system: locally advanced or cutaneous metastatic breast cancer; conditions: topical, cited from earlier work

For `C=C1/C(=C\C=C2/CCC[C@]3(C)[C@@H]([C@@H](C)OCCCC(O)(CC)CC)CC[C@@H]23)C[C@@H](O)C[C@@H]1O` [KH 1060, 20-epi-22-oxa-24a,26a,27a-trihomo-1α,25-(OH)2-D3], the “calcemic index (CI)” value [1] is listed as “CI = 1.3”.

For `C=C1/C(=C\C=C2/CCC[C@]3(C)[C@@H]([C@H](C)OCCC(C)(C)O)CC[C@@H]23)C[C@@H](O)C[C@@H]1O` [22-Oxacalcitriol, 22-oxa-1α,25-(OH)2-D3], the “calcemic index (CI)” value [1] is given as “CI < 0.001”, the “Relative Competitive index for VDR (Calcitriol = 100)” value [2] is given as 100 (MCF-7 cells) and the “Relative Competitive index for VDR (Calcitriol = 100)” value [3] is given as 100 (rat osteosarcoma).

In the case of `C=C1/C(=C\C=C2/CCC[C@]3(C)C([C@H](C)CCCC(C)(C)O)=CC[C@@H]23)C[C@@H](O)C[C@@H]1O` [1,25-(OH)2-16-Ene-D3, 1,25-(OH)2-16-ene-D3], the “Relative Competitive index for VDR (Calcitriol = 100)” value (VDR (chick intestine)) is given as 165 (chick) and the “Relative Competitive index for VDR (Calcitriol = 100)” value (VDR (rat intestine)) is given as 240 (rat intestine) and 250 (rat intestine).

For 25-(OH)2-16-ene-23-yne-D3, the “Relative Competitive index for VDR (Calcitriol = 100)” value (VDR (chick intestine)) is listed as 0.4 (chick) and <0.4 (chick) and the “Relative Competitive index for VDR (Calcitriol = 100)” value (VDR (rat intestine)) is listed as 0.07 (rat intestine).

In the case of `C=C1C(=CC=C2CC(CF)CC3(C)C2CCC3C(C)CCCC(C)(C)O)CC(O)CC1O` (stereo not drawn) [11α-fluoromethyl-1α,25-(OH)2-D3], the “calcemic index (CI)” value [1] is given as “about 0.1”.

In the case of `C=C1/C(=C\C=C2/CCC[C@]3(C)[C@@H]([C@H](C)CCCC(C)C)CC[C@@H]23)C[C@@H](O)C[C@@H]1O` [1alpha-(OH)-D3, 1α-hydroxyvitamin D3], the “Relative Competitive index for VDR (Calcitriol = 100)” value (VDR (chick intestine)) is listed as 0.17 (chick).

In the case of `C=C1/C(=C\C=C2/CCC[C@]3(C)[C@@H]([C@H](C)CCCC(C)(C)O)CC[C@@H]23)C[C@@H](O)C[C@@H]1O` [MC 1288, 1,25(OH2-20-epi-D3], the “Relative Competitive index for VDR (Calcitriol = 100)” value (VDR (chick intestine)) is given as 147 (chick) and 120 (chick).

In the case of `C=C1/C(=C\C=C2/CCC[C@]3(C)[C@@H]([C@H](C)/C=C/[C@@H](O)C4CC4)CC[C@@H]23)C[C@@H](O)C[C@@H]1O` [MC 903, 1[…]24S-(OH)2-22-Ene-26,27-dehydro-D3], the “calcemic index (CI)” value [1] is listed as “CI < 0.01”, the “Relative Competitive index for VDR (Calcitriol = 100)” value (VDR (U-937 cells)) is listed as 240 (U-937 cells) and the “patients with a 50% reduction in the bidirectional diameter of the treated lesions” value ([4]; patients who completed 6 weeks of treatment) is listed as “Three of the 14”. The hypercalcemia [4] was “hypercalcemia was a complication of the treatment” and the “Relative Competitive index for VDR (Calcitriol = 100)” value (VDR (chick intestine)) was 111 (chick) and 76 (chick) and 100 (chick).

For `C=C1/C(=C\C=C2/CCC[C@]3(C)[C@@H]([C@H](C)/C=C/C=C/C(O)(CC)CC)CC[C@@H]23)C[C@@H](O)C[C@@H]1O` [EB 1089, 24a,26a,27a-trihomo-22,24-diene-1α, 25-(OH)2-D3], the “Relative Competitive index for VDR (Calcitriol = 100)” value (VDR (chick intestine)) is listed as 17 (chick).

For `C=C1/C(=C\C=C2/CCC[C@]3(C)C([C@H](C)CC#CC(C)(C)O)=CC[C@@H]23)C[C@@H](O)C[C@@H]1O` [1,25-(OH)2-16-Ene-23-yne-D3, 1,25-(OH)2-16-ene-23-yne-D3], the “Relative Competitive index for VDR (Calcitriol = 100)” value (VDR (chick intestine)) is given as 68 (chick) and 70 (chick) and 90 (chick) and 80 (chick) and the “Relative Competitive index for VDR (Calcitriol = 100)” value (VDR (rat intestine)) is given as 50 (rat intestine).
